Three molecules from paper PMC4247201 (Cancer research, 2014) can be followed below.

The test system of one series is LANCaP. Kind of series: WST cell growth inhibition, LANCaP. It is filed as cell-based.
The next series deals with HCT-116. Kind of series: WST cell growth inhibition, HCT-116. In kind it is cell-based.
A further series deals with RS4;11. As to the kind of experiment: WST cell growth inhibition, RS4. It is filed as cell-based.
A further series deals with SJSA-1. Kind of series: WST cell growth inhibition, SJSA-1. In kind it is cell-based.
For series [1], the system named is SJSA-1 osteosarcoma cell line. Kind of series: qRT-PCR of p53 target gene mRNA in SJSA-1 cells. It is filed as cell-based. Particulars: for effect on mRNA levels of Bax and Noxa: qRT-PCR.
A further series has as its system HCT-116 (p53−/−). As to the kind of experiment: WST cell growth inhibition, HCT-116. In kind it is cell-based.
A further series relates to RS4;11 xenograft tumors. As to the kind of experiment: RS4. Particulars: RS4;11 model. It is filed as in vivo, SCID mice.
A further series has as its system HCT-116 xenograft tumors. Kind of series: HCT-116 colon cancer xenograft efficacy. In kind it is in vivo, SCID mice. The conditions noted are these: HCT-116 model.
The test system of the next series is Bcl-xL. As to the kind of experiment: binding to Bcl-xL. The conditions noted are these: at 10 μM.
In series [2] the test system is SJSA-1 cells with p53 knock-down. It is filed as cell-based.
For series [3], the system named is HCT-116 xenograft tumor tissue. Kind of series: pharmacodynamics, qRT-PCR in HCT-116 tumor tissue. In kind it is in vivo, mice. Particulars: single oral dose, even at 200 mg/kg.
A further series concerns SW620. As to the kind of experiment: WST cell growth inhibition, SW620. In kind it is cell-based. Particulars: Homo sapiens, SW-620, read-out: Cell growth Inhibition (IC50, μM).
The subject of series [4] is SJSA-1, HCT-116, RS4;11 and LNCaP cell lines. As to the kind of experiment: Western blotting of p53 activation in four cell lines. In kind it is cell-based.
For the next series, the system named is SAOS-2. Kind of series: WST cell growth inhibition, SAOS-2. In kind it is cell-based. Particulars: Homo sapiens, SAOS-2, read-out: Cell growth Inhibition (IC50, μM).
The test system of a further series is SJSA-1 tumor tissue. Kind of series: pharmacodynamics, qRT-PCR in SJSA-1 tumor tissue. Particulars: single oral dose. In kind it is in vivo, mice.
For another series, the system named is β-catenin. As to the kind of experiment: binding to β-catenin. Particulars: at 10 μM.
The nature of series [5]: oral pharmacokinetics in rats. In kind it is in vivo.
A further series deals with MDM2 25–118 protein (Homo sapiens, UniProt Q00987). Kind of series: FP binding assay, truncated MDM2 25–118. The conditions noted are these: MDM2 25–118 vs 1–118.
The subject of another series is SJSA-1 xenograft tumors. As to the kind of experiment: SJSA-1 osteosarcoma xenograft efficacy. It is filed as in vivo, SCID mice. The conditions noted are these: SJSA-1 model.
For series [6] the following is noted: mouse, in vivo.
Another series deals with human MDM2 protein (Homo sapiens, UniProt Q00987). As to the kind of experiment: fluorescence-polarization competitive binding assay, MDM2 1–118.
In a further series the test system is Mcl-1. Kind of series: binding to Mcl-1. Particulars: at 10 μM.
Another series deals with PC-3. Kind of series: WST cell growth inhibition, PC-3. In kind it is cell-based. Particulars: Homo sapiens, PC-3, read-out: Cell growth Inhibition (IC50, μM).
The target in another series is MDM2 18–118 protein (Homo sapiens, UniProt Q00987). As to the kind of experiment: FP binding assay, truncated MDM2 18–118. Particulars: MDM2 18–118 vs 1–118.
Series [7] can be described thus: oral pharmacokinetics in mice. In kind it is in vivo.
Series [8] relates to LNCaP prostate cancer cell line. As to the kind of experiment: flow cytometry cell cycle and apoptosis, LNCaP. It is filed as cell-based.
Series [9] concerns cancer cell lines with a mutated or deleted p53. Kind of series: cell growth inhibition, mutated or deleted p53 lines. It is filed as cell-based. The conditions noted are these: read-out: IC50 of cell growth inhibition.
A further series concerns MDMx. Kind of series: Biolayer Interferometry binding to MDMx. Particulars: at 10 μM.
A further series concerns Bcl-2. As to the kind of experiment: binding to Bcl-2. Particulars: at 10 μM.
Series [10] deals with wild-type p53 cancer cell lines of diverse tumor types. As to the kind of experiment: cell growth inhibition, wild-type p53 lines. In kind it is cell-based.
Series [11] can be described thus: tolerability in efficacy experiments. Particulars: mice, all dose-scheduled tests of the efficacy experiments.
The test system of series [12] is HCT-116 colon cancer cell line. As to the kind of experiment: qRT-PCR of p53 target gene mRNA in HCT-116 cells. In kind it is cell-based.
The nature of series [13]: stability in cell culture media and two other solutions. It is filed as physicochemical. The conditions noted are these: cell culture media and two other solutions in which some spiro-oxindoles isomerize.
The subject of a further series is LNCaP xenograft tumors. As to the kind of experiment: LNCaP prostate cancer xenograft efficacy. In kind it is in vivo, SCID mice. The conditions noted are these: LNCaP model.
Series [14] is described as follows: oral pharmacokinetics in dogs. It is filed as in vivo.
The subject of series [15] is HCT-116 colon cancer cell line. As to the kind of experiment: flow cytometry cell cycle and apoptosis, HCT-116. In kind it is cell-based.
Where [16] appears, read: read-out: Cell growth Inhibition (IC50), LANCaP, p53 Wild Type.
The mark [17] stands for this setting: read-out: Cell growth Inhibition (IC50), HCT-116, p53 Wild Type.
Setting [18] is: read-out: Cell growth Inhibition (IC50), RS4;11, p53 Wild Type.
The mark [19] stands for this setting: read-out: Cell growth Inhibition (IC50), SJSA-1, p53 Wild Type.
The mark [20] stands for this setting: Homo sapiens, HCT-116, read-out: Cell growth Inhibition (IC50, μM).

Molecules are shown by their SMILES. Where two headings read alike, the source gives them in different places. A value given as a limit tells only on which side of the number the result lay.

In the case of `CC(C)(C)C[C@H]1N[C@@H](C(=O)NCC[C@H](O)CO)[C@H](c2cccc(Cl)c2)[C@@]12C(=O)Nc1cc(Cl)c(F)cc12.Cl` [MI-219], the concentration for half-maximal inhibition (IC50) with LANCaP (setting [16]) was 1.1 ± 0.1 µM; in the series with HCT-116 (setting [17]), 0.95 ± 0.05 µM; with RS4;11 (setting [18]), 1 ± 0.2 µM; in the series on SJSA-1 (setting [19]), 1.4 ± 0.2 µM; in the series with HCT-116 (p53−/−) (read-out: Cell growth Inhibition (IC50), HCT-116 (p53−/−), p53 Deletion), more than 10 µM. In addition, in [1] (SJSA-1 cells), the “effect on mRNA levels of Bax and Noxa” value is recorded as “no significant effect”.
In the case of `COc1ccc(C2=N[C@@H](c3ccc(Cl)cc3)[C@@H](c3ccc(Cl)cc3)N2C(=O)N2CCNC(=O)C2)c(OC(C)C)c1` [Nutlin-3a], the IC50 was determined as 1.2 ± 0.4 µM in the series with LANCaP (setting [16]), 0.86 ± 0.11 µM in the series with HCT-116 (setting [17]), 0.57 ± 0.13 µM with RS4;11 (setting [18]) and 1.3 ± 0.2 µM in the series on SJSA-1 (setting [19]). Besides, the “effect on mRNA levels of Bax and Noxa” value in series [1] (SJSA-1 cells) is recorded as “no significant effect”.
Consider `CC(C)(C)C[C@@H]1N[C@@H](C(=O)N[C@H]2CC[C@H](O)CC2)[C@H](c2cccc(Cl)c2F)[C@]12C(=O)Nc1cc(Cl)ccc12` [SAR405838], for which the antitumor activity entry is “partial tumor regression” with RS4;11 xenograft tumors (50 mg/kg daily dosing); “complete tumor regression” with RS4;11 xenograft tumors (100 mg/kg daily dosing); “complete tumor regression” with RS4;11 xenograft tumors (200 mg/kg daily dosing); “completely inhibits tumor growth” with HCT-116 xenograft tumors (200 mg/kg daily dosing); “no significant activity” in the series with SJSA-1 xenograft tumors (10 mg/kg daily oral for 2 weeks); “partial tumor regression” in the series on SJSA-1 xenograft tumors (30 mg/kg daily oral for 2 weeks). For the same molecule, the antitumor activity entry was “rapid, complete and persistent tumor regression” in the series on SJSA-1 xenograft tumors (100 mg/kg daily oral for 2 weeks); “effectively inhibits tumor growth” in the series on SJSA-1 xenograft tumors (single 100 mg/kg oral dose); “completely inhibits tumor growth” in the series with LNCaP xenograft tumors (100 mg/kg daily for 4 weeks). The tumor free mice in the series with RS4;11 xenograft tumors (200 mg/kg, day 71, 25 days after the last dose, of 8 mice) is listed as 8 mice; in the series on SJSA-1 xenograft tumors (100 mg/kg daily, day 55, 31 days after the last dose, of 8 mice), 8 mice. Besides, the “tumor growth inhibition over the vehicle control” value in the series with HCT-116 xenograft tumors (100 mg/kg daily dosing, end of the treatment) was more than 80%; with LNCaP xenograft tumors (50 mg/kg daily for 4 weeks) it was 70%. The “binding to Bcl-xL” value with Bcl-xL is given as “no appreciable binding”. The “reduction of potency in cell growth inhibition by p53 knock-down” value in [2] is more than 20 times. For the same molecule, the “maximum induction of PUMA mRNA over the control” value in [3] was determined as 3 fold. For the same molecule, the IC50 in the series with SW620 was more than 10 µM; in the series on LANCaP (read-out: Cell growth Inhibition (IC50, μM)), 0.27 ± 0.03 µM; in the series on HCT-116 (setting [20]) it was 0.2 ± 0.04 µM; in the series on SAOS-2, more than 10 µM; in the series with RS4;11 (Homo sapiens, RS4-11, read-out: Cell growth Inhibition (IC50, μM)) it was 0.089 ± 0.027 µM; in the series with PC-3, more than 10 µM. Also, the IC50 is not below 10 µM in series [9]; 0.092 ± 0.019 µM in the series on SJSA-1 (Homo sapiens, SJSA-1, read-out: Cell growth Inhibition (IC50, μM)); more than 20 µM with HCT-116 (p53−/−) (setting [20]). Further, the “times more potent than MI-219 in activation of p53” value in series [4] is listed as more than 10 times. The “increase of PUMA mRNA” value is more than 40 fold in the series with SJSA-1 tumor tissue; ~ 3 fold in series [12] (HCT-116 cells, at 1 and 3 μM). The “binding to β-catenin” value with β-catenin is “no appreciable binding”. The “oral pharmacokinetics (PK)” value in series [5], in series [7] and in series [14] was “good” in each case. Moreover, the “times weaker than with the MDM2 1–118 protein” value at MDM2 25–118 protein turned out to be 25 times; at MDM2 18–118 protein, 10 times. The “shrinkage of average tumor volume” value in the series on SJSA-1 xenograft tumors (100 mg/kg daily oral, after four doses) was more than 90%. Moreover, the tumor free animals in the series on SJSA-1 xenograft tumors (100 mg/kg daily, day 73, 2 months after the last dose, 5 out of 8) came out at 63%. In addition, the “mice with complete tumor regression” value with SJSA-1 xenograft tumors (single oral dose of 200 mg/kg) is reported as 100%. Moreover, the signs of toxicity result in series [6] was “no signs of toxicity”. In addition, at human MDM2 protein (comparator MI-219), the “times more potent than MI-219 in MDM2 binding” value is more than 10 times. Moreover, on human MDM2 protein (comparator nutlin-3a), the “times more potent than nutlin-3a in MDM2 binding” value was more than 50 times. On human MDM2 protein (comparator p53 peptide), the “times more potent than the p53 peptide in MDM2 binding” value is given as > 1,000 times. In addition, the “binding to Mcl-1” value with Mcl-1 is on record as “no appreciable binding”. Further, the “concentration that effectively inhibits cell cycle progression” value in series [8] (24 h treatment) is not below 0.3 µM; in series [15] (HCT-116, 24 h treatment), not below 0.3 µM. Moreover, the apoptosis induction entry in series [8] (even at 10 μM) is recorded as “modest or minimal effect”; in [15] (HCT-116, even at 10 μM) it was “modest or minimal effect”. Moreover, the “binding to MDMx” value in the series on MDMx is listed as “no appreciable binding”. Further, in the series on Bcl-2, the “binding to Bcl-2” value was “no appreciable binding”. Further, the “times more potent than MI-219 and nutlin-3a in inhibition of cell growth” value in [10] is on record as 5–10 times. The concentration giving a half-maximal response (EC50) is 0.3 to 0.6 µM in series [1] (Homo sapiens, SJSA-1, read-out: EC50 of up-regulation of MDM2, p21 and PUMA mRNA); 0.7 µM in [12] (Homo sapiens, HCT-116, read-out: EC50 of increase of MDM2 and p21 mRNA). In addition, the figures for the “effect on p53 mRNA” value in series [1] (SJSA-1 cells) and in series [12] (HCT-116 cells) were “no effect” and “no increase”, respectively. The “times more potent than MI-219 and nutlin-3a in induction of p21 and MDM2 transcription” value in series [1] (SJSA-1 cells) and in series [12] (HCT-116 cells) was 5–10 times each time. For the same molecule, in series [1] (SJSA-1 cells, at 1 μM), the “induction of PUMA mRNA” value was found to be 19 fold. In addition, the “effect on mRNA levels of Bax and Noxa” value in [1] (SJSA-1 cells) is recorded as “no significant effect”. Also, the weight loss result in series [11] is on record as “less than 10%”. Besides, the stability in solution entry in series [13] is on record as “stable”. In the series with LNCaP xenograft tumors (200 mg/kg daily for 4 weeks), this molecule gave a tumor regression of 80%.
